Experimental data from patent publication US11267811B2, “Small molecule inhibitors of galectin-3” (BRISTOL-MYERS SQUIBB COMPANY, priority 2017, dated 2022).
pIC50: −log10 of the molar value.

target: His-tagged recombinant human Gal-3 (hGal-3) (Homo sapiens (Human), UniProt P17931); assay: Gal-3 HTRF assay (His-tagged hGal-3 binding to B-ASF); details: HTRF, hGal-3 15 nM, B-ASF 15 nM; read-out: hGal-3 IC50;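 further: compounds preincubated 30 min with hGal-3, then 1 h with B-ASF, detection via terbium anti-His antibody and streptavidin d2. Control with B-ASF counts as full signal, omitting B-ASF as background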
Sequence (P17931 whole entry): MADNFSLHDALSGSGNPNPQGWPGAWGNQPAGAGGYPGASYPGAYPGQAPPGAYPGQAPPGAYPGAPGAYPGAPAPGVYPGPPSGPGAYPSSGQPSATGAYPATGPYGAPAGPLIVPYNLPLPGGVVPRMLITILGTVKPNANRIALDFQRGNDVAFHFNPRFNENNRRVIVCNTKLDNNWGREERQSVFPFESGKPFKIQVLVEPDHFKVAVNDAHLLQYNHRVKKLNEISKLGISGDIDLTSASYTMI

Row | Compound | pIC50
1 | OC[C@H]1O[C@@H](n2nncc2-c2ccccc2)[C@H](O)[C@@H](n2cc(-c3cc(F)c(F)c(F)c3)nn2)[C@H]1O [Example 3] | 6.21
2 | OC[C@H]1O[C@@H](n2nncc2-c2ccc3c(c2)OCO3)[C@H](O)[C@@H](n2cc(-c3cc(F)c(F)c(F)c3)nn2)[C@H]1O [Example 4] | 6.41
3 | OC[C@H]1O[C@@H](n2nncc2-c2ccc3[nH]ncc3c2)[C@H](O)[C@@H](n2cc(-c3cc(F)c(F)c(F)c3)nn2)[C@H]1O [Example 5] | 6.19
4 | OC[C@H]1O[C@@H](n2nncc2-c2ccc3cn[nH]c3c2)[C@H](O)[C@@H](n2cc(-c3cc(F)c(F)c(F)c3)nn2)[C@H]1O [Example 6] | 6.31
5 | OC[C@H]1O[C@@H](n2nncc2-c2ccc(Cl)cc2)[C@H](O)[C@@H](n2cc(-c3cc(F)c(F)c(F)c3)nn2)[C@H]1O [Example 7] | 6.48
6 | Cc1nc2ccc(-c3cnnn3[C@@H]3O[C@H](CO)[C@H](O)[C@H](n4cc(-c5cc(F)c(F)c(F)c5)nn4)[C@H]3O)cc2s1 [Example 8] | 6.80
7 | COc1cccc(-c2cnnn2[C@@H]2O[C@H](CO)[C@H](O)[C@H](n3cc(-c4cc(F)c(F)c(F)c4)nn3)[C@H]2O)c1 [Example 9] | 6.80
8 | CC(C)(C)c1cnnn1[C@@H]1O[C@H](CO)[C@H](O)[C@H](n2cc(-c3cc(F)c(F)c(F)c3)nn2)[C@H]1O [Example 10] | 6.44
9 | O=C(O)c1nnn([C@@H]2O[C@H](CO)[C@H](O)[C@H](n3cc(-c4cc(F)c(F)c(F)c4)nn3)[C@H]2O)c1-c1ccc(Cl)c(Cl)c1 [Example 11] | 6.74
10 | CCO[C@@H]1[C@@H](n2cc(-c3cc(F)c(F)c(F)c3)nn2)[C@@H](O)[C@@H](CO)O[C@H]1n1nncc1-c1cccc(Cl)c1 [Example 12, (2R,3R,4S,5R,6R)-6-(5-(3-chlorophenyl)-1H-1,2,3-triazol-1-yl)-5-ethoxy-2-(hydroxymethyl)-4-(4-(3,4,5-trifluorophenyl)-1H-1,2,3-triazol-1-yl)tetrahydro-2H-pyran-3-ol] | 6.01
11 | COCCO[C@@H]1[C@@H](n2cc(-c3cc(F)c(F)c(F)c3)nn2)[C@@H](O)[C@@H](CO)O[C@H]1n1nncc1-c1cccc(Cl)c1 [Example 13] | 6.24
12 | O=C(O)CO[C@@H]1[C@@H](n2cc(-c3cc(F)c(F)c(F)c3)nn2)[C@@H](O)[C@@H](CO)O[C@H]1n1nncc1-c1cccc(Cl)c1 [Example 14] | 5.07
13 | OC[C@H]1O[C@@H](n2nncc2-c2ccc(Cl)c(Cl)c2)C[C@@H](n2cc(-c3cc(F)c(F)c(F)c3)nn2)[C@H]1O [Example 15, (2R,3R,4R,6R)-6-(5-(3,4-dichlorophenyl)-1H-1,2,3-triazol-1-yl)-2-(hydroxymethyl)-4-(4-(3,4,5-trifluorophenyl)-1H-1,2,3-triazol-1-yl)tetrahydro-2H-pyran-3-ol] | 6.06
14 | COc1cccc(-c2cnnn2[C@H]2C[C@@H](n3cc(-c4cc(F)c(F)c(F)c4)nn3)[C@@H](O)[C@@H](CO)O2)c1 [Example 16] | 6.22
15 | OC[C@H]1O[C@@H](n2nncc2-c2ccccc2)C[C@@H](n2cc(-c3cc(F)c(F)c(F)c3)nn2)[C@H]1O [Example 17] | 6.04
16 | OC[C@H]1O[C@@H](n2nncc2-c2cccc(Cl)c2)[C@H](F)[C@@H](n2cc(-c3cc(F)c(F)c(F)c3)nn2)[C@H]1O [Example 18, (2R,3R,4S,5R,6R)-6-(5-(3-chlorophenyl)-1H-1,2,3-triazol-1-yl)-5-fluoro-2-(hydroxymethyl)-4-(4-(3,4,5-trifluorophenyl)-1H-1,2,3-triazol-1-yl)tetrahydro-2H-pyran-3-ol] | 5.98

same assay, conditions: read-out: hGal3 IC50

Row | Compound | pIC50
17 | CO[C@@H]1[C@@H](n2cc(-c3cc(F)c(F)c(F)c3)nn2)[C@@H](O)[C@@H](CO)O[C@H]1c1nncn1-c1ccc(Cl)c(Cl)c1 [Ex 283] | 7.10
18 | Cn1nccc1[C@@H]1O[C@H](CO)[C@H](O)[C@H](n2cc(-c3cc(F)c(F)c(F)c3)nn2)[C@H]1O [Ex 286] | 5.00
19 | OC[C@H]1O[C@@H](c2oncc2-c2cccc(Cl)c2)[C@H](O)[C@@H](n2cc(-c3cc(F)c(F)c(F)c3)nn2)[C@H]1O [Ex 289] | 5.09
